# Test results taken from ChEMBL document CHEMBL5550086, “Drug discovery targeting nicotinamide phosphoribosyltransferase (NAMPT): Updated progress and perspectives” (Bioorg Med Chem, 2024).
# Columns and labels:
# A2780 = test: cells; settings: Homo sapiens, A2780, 72 h
# [1] = biological target: Nicotinamide phosphoribosyltransferase (Mus musculus, UniProt Q99KQ4); test: Activation of N-terminal 6His-tagged mouse NAMPT measured for 20 mins by fluorescence based spectrometer analysis
# [2] = biological target: Nicotinamide phosphoribosyltransferase (Mus musculus) (UniProt Q99KQ4); test: Activation of N-terminal 6His-tagged mouse NAMPT assessed as increase in intracellular NAD+ level measured for 20 mins by fluorescence based spectrometer analysis relative to control; type: cell-based; settings: filed as activator
# [3] = biological target: T1, Protein cereblon/Nicotinamide phosphoribosyltransferase (Homo sapiens, UniProt P43490+Q96SW2); test: PROTAC activity at CRBN/NAMPT in human Jurkat cells assessed as induction of intracellular NAMPT degradation incubated for 24 hrs by Western blot analysis; type: cell-based
# Target sequence in this assay (P43490 whole entry): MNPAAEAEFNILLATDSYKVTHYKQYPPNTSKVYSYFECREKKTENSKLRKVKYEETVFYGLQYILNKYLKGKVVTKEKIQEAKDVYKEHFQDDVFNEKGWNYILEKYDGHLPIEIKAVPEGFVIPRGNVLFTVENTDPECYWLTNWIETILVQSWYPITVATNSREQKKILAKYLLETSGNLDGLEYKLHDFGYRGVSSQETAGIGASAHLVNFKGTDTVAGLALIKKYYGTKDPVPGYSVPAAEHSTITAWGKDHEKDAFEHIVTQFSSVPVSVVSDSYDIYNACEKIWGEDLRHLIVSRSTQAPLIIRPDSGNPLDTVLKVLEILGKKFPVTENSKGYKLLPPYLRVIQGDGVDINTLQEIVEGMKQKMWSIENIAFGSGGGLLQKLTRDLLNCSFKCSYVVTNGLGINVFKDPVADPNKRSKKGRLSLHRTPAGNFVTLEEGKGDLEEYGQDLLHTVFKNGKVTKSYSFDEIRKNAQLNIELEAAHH
# Target sequence in this assay (Q96SW2 whole entry): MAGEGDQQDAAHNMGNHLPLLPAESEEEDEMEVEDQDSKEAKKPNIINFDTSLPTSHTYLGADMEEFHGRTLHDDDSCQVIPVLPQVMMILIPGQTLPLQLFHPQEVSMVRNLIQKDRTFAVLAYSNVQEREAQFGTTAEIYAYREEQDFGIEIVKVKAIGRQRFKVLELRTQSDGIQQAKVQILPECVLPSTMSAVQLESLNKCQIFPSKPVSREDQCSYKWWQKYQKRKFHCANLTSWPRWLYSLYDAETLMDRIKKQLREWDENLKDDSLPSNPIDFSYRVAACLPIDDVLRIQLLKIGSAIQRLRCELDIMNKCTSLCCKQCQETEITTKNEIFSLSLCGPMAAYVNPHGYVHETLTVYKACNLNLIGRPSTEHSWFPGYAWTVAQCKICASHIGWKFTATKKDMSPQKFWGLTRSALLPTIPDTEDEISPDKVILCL
# [4] = biological target: T1, Protein cereblon/Nicotinamide phosphoribosyltransferase; test: PROTAC activity at CRBN/NAMPT in human Jurkat cells assessed as induction of intracellular NAMPT degradation at 5 uM incubated for 24 hrs by Western blot analysis relative to control; type: cell-based
# Target sequence in this assay (P43490 whole entry, looked up): as the sequence (P43490 whole entry) above
# Target sequence in this assay (Q96SW2 whole entry, looked up): as the sequence (Q96SW2 whole entry) above
# HepG2 = test: cells; settings: Homo sapiens, HepG2, 48 h
# [5] = biological target: T2, Nicotinamide phosphoribosyltransferase (Homo sapiens, UniProt P43490); test: Activation of recombinant NAMPT (unknown origin) expressed in Escherichia coli by fluorescence based spectrometer analysis
# Cytochrome P450 2C9 = Cytochrome P450 2C9 (Homo sapiens, UniProt P11712); test: Inhibition of CYP2C9 (unknown origin); type: ADME
# [6] = biological target: T2, Nicotinamide phosphoribosyltransferase; test: Activation of N-terminal His-tagged human NAMPT expressed in Escherichia coli BL 21 (DE3) using NAM and PRPP as substrates incubated for 15 mins in presence of ATP by fluorescence based spectrometer analysis
# [7] = biological target: T2, Nicotinamide phosphoribosyltransferase; test: Inhibition of NAMPT (unknown origin)
# PC-3 = test: Anticancer activity against human PC-3 cells; type: functional, cell-based
# HCT-116 = test: Anticancer activity against human HCT-116 cells assessed as reduction in cell growth; type: functional, cell-based
# [8] = Anticancer activity against human NYH/VM cells assessed as reduction in cell growth; type: functional, cell-based
# T2 sequence (P43490 whole entry): as the sequence (P43490 whole entry) above
# Chain of Cytochrome P450 2C9 (P11712 whole entry): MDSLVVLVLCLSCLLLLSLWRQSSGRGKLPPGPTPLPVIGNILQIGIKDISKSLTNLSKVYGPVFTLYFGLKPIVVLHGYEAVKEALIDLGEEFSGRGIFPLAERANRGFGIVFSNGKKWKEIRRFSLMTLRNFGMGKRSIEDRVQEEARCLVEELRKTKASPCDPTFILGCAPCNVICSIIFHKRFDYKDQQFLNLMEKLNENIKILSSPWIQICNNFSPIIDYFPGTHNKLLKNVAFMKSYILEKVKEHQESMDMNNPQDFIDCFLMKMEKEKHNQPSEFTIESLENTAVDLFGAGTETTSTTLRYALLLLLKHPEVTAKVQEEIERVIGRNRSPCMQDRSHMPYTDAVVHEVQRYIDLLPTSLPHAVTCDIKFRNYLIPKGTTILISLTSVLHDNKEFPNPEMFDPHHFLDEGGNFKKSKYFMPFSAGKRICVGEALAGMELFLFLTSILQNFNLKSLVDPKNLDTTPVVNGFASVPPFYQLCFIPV
# Chain of Nicotinamide phosphoribosyltransferase (Mus musculus, UniProt Q99KQ4) (Q99KQ4 whole entry): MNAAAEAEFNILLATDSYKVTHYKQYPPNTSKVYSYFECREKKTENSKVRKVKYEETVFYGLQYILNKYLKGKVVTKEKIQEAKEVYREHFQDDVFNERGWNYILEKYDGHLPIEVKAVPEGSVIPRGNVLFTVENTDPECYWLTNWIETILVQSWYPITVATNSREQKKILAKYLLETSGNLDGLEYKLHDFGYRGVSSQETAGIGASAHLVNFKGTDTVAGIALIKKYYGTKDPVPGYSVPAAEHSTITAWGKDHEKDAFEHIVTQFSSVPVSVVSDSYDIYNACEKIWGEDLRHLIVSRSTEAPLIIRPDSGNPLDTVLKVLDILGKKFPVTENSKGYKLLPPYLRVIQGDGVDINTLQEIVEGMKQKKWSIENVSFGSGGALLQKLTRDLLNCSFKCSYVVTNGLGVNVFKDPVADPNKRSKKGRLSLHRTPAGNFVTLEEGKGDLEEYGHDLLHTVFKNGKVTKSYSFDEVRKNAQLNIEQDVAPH
# Chain of Nicotinamide phosphoribosyltransferase (Mus musculus) (Q99KQ4 whole entry, looked up): as the sequence (Q99KQ4 whole entry) above
smiles,measurement,setting,value
O=S(=O)(c1ccc(CNc2ccc3cccn3c2)cc1)c1cc(F)cc(F)c1,IC50,A2780,360 nM
O=C(NCc1ccc(CO)cc1)Nc1ccc(S(=O)(=O)N2CC3CCC(C2)O3)cc1,EC50,[1],1490 nM
same,Emax,[2],247%
O=C(/C=C/c1cccnc1)NCCCCC1CCN(C(=O)c2ccc(N3CCN(CCCCCC#Cc4cccc5c4CN(C4CCC(=O)NC4=O)C5=O)CC3)cc2)CC1 (stereo unspecified),DC50,[3],< 1 nM
same,Emax,[4],93.3%
CCCn1c(=O)c(-c2ccc(C(=O)NCc3cccnc3)cc2)nc2ccccc21,IC50,HepG2,1950 nM
O=C1C=C2Cc3cc(O)c(O)cc3C(c3ccccc3O)=C2C=C1O,EC50,[5],3500 nM
O=C(NC[C@@H]1CCOC1)c1ccc(NC(=O)N2Cc3ccccc3C2)cc1,IC50,Cytochrome P450 2C9,> 20000 nM
CCN(CC)C(=O)c1noc2cc(NC(=O)NCc3cnco3)ccc12,EC50,[6],180 nM
O=C(/C=C/c1cccnc1)NCCCCC1CCN(C(=O)c2ccc(N3CCN(CCCCCCC#Cc4cccc5c4CN(C4CCC(=O)NC4=O)C5=O)CC3)cc2)CC1 (stereo unspecified),DC50,[3],< 1 nM
same,Emax,[4],92.5%
Nc1ccc(/C=C/C(=O)NCc2cc3cc(-c4ccc(C(=O)N5CCC(F)(F)CC5)cc4)cc(-c4ccc(F)cc4)c3o2)cn1 [PADNARSERTIB],IC50,[7],120 nM
Cc1nc2ccccc2n(Cc2ccc(C(=O)NCc3cccnc3)cc2)c1=O,IC50,HepG2,1690 nM
N#C/N=C(\NCCCCCCC(=O)N(Cc1ccccc1)OC1CCCCC1)Nc1ccncc1,IC50,PC-3,0.3 nM
same,IC50,HCT-116,0.4 nM
same,IC50,[8],0.02 nM
